From patent publication EP0169405A2, “Use of substituted pyrimido (5,4-d) pyrimidines” (BOEHRINGER INGELHEIM KG, priority 1984, dated 1986) come the findings set out here.

Data set [1] concerns Störung des Kurzzeitgedächtnisses. Briefly: Reversal of scopolamine-induced disturbance of short-term memory. The settings on record: po; scopolamine-induced memory disturbance is reversed; read-out: niedrigste wirksame Dosis (wirksam ab). The class given is in vivo. The source says:
In der Formel I bedeutet • ^R1 einen Cl-C3-Alkoxy-(C2-C3-alkyl)rest, • ^R2 einen C2-C6-Hydroxyalkylrest oder einen C3-Dihydroxy- alkylrest, • ^R3 einen C1-C3-Alkoxy-(C2-C3-alkyl) rest oder einen C2-C3-Hydroxyalkylrest, • R4 einen Dialkylaminorest, wobei jeder Alkylrest 1 bis 6 C-Atome enthalten kann, die Diallyl- oder Di-(methoxyethyl)-aminogruppe oder einen gegebenenfalls durch eine Methylgruppe substituierten Pyrrolidino-, Piperidino-, Hexamethylenamino-, 1', 2', 5', 6'-Tetrahydropyridino-, Morpholino-, Thiomorpholino- oder 1-Oxidothiomorpholinoring. Die Verbindungen können als freie Basen oder als physiologisch verträgliche Säureadditionssalze mit anorganischen oder organischen Säuren vorliegen. Es wurde nun in tierexperimentellen Untersuchungen gefunden, daß die Verbindungen überraschenderweise besonders zur Beeinflussung eingeschränkter zerebraler Leistungsfähigkeit geeignet sind. Die folgenden Ergebnisse stützen diese Aussage: • 1. Durch gabe des muskarinen cholinergen Antagonisten Scopolamin wird eine Störung des Kurzzeitgedächtnisses bzw. des Übergangs von Inhalten des Kurzzeit- in das sogenannte Langzeitgedächnis erzeugt. Diese Einschränkung wird durch die neuen Verbindungen aufgehoben. […]

The nature of data set [2]: Acute toxicity in the mouse (LD50). To be noted: in vivo.

The structures appear in SMILES notation. Where two headings read alike, the source gives them in different places.

In the case of `COc1ccc(C(=O)N2CCCC2=O)cc1` [Aniracetam], in data set [1], the minimal effective dose was 50 mg/kg.
On to `NC(=O)CN1CCCC1=O` [Piracetam], for which, in data set [1], the minimal effective dose was 150 mg/kg.
For the compound `CCN(CC)c1nc(N(CCO)CCOC)nc2c(N(CC)CC)nc(N(CCO)CCOC)nc12` [Verbindung (B)], the LD50 (usually the dose at which mortality reaches 50%) in data set [2] (iv, read-out: i.v. LD50) was 133 mg/kg; in data set [2] (po, read-out: p.o. LD50), greater than 3000 mg/kg.
